Assay results: ChEMBL document CHEMBL1141558, “Design and synthesis of a siderophore conjugate as a potent PSMA inhibitor and potential diagnostic agent for prostate cancer” (Bioorg Med Chem, 2008)

Tests used:
[1] = biological target: T1, Glutamate carboxypeptidase 2 (Homo sapiens, UniProt Q04609); assay: Inhibition of human recombinant NAALADase
[2] = biological target: T1, Glutamate carboxypeptidase 2; assay: Inhibition of NAALADase expressed in LNCaP human prostate cancer cells; type: cell-based

T1 sequence (Q04609 whole entry): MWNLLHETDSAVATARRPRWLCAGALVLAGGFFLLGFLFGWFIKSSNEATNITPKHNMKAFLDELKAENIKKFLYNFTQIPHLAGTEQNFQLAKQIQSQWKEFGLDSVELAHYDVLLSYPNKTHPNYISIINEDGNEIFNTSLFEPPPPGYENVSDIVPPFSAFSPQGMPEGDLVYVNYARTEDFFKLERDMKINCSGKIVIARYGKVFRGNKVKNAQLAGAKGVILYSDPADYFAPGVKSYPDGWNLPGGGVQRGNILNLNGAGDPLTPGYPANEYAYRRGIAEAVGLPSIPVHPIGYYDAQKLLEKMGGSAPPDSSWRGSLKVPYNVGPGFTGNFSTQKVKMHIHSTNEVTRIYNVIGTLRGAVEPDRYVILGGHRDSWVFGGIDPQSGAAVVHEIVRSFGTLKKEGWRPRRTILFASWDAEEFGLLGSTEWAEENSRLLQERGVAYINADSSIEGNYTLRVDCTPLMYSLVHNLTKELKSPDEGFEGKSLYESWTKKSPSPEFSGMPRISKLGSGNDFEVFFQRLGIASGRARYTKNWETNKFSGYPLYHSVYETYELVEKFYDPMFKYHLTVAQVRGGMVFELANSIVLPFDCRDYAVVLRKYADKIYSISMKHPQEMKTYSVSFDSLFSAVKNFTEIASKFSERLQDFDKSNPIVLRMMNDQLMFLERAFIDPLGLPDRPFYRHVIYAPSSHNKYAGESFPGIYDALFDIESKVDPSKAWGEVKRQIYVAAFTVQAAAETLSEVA

Row | IC50 [2] [nM] | SMILES | IC50 [1] [nM]
1 | – | CC(=O)N[C@@H](CCCN(O)C(C)=O)C(=O)N[C@@H](CCCN(O)C(C)=O)C(=O)N[C@@H](CCCN(O)C(C)=O)C(=O)NCCCC(=O)c1ccc(C(=O)NCC(=O)Nc2ccc(CCOP(=O)(O)C[C@@H](CCC(=O)O)C(=O)O)cc2)cc1 | 4
2 | 12.5 | O=C(O)CCC(CP(=O)(O)OCc1ccccc1)C(=O)O (configuration not stated) | –
